Measured values: ChEMBL document CHEMBL1765000, “Synthesis and biological evaluation of 1-substituted-3(5)-(6-methylpyridin-2-yl)-4-(quinolin-6-yl)pyrazoles as transforming growth factor-β type 1 receptor kinase inhibitors” (Bioorg Med Chem, 2011)

Tests used:
[1] = molecular target: Mitogen-activated protein kinase 14 (Homo sapiens, UniProt Q16539); assay: Inhibition of human recombinant p38alpha expressed in Escherichia coli using ATF2 as a substrate by radioisotopic protein kinase assay
TGF-beta receptor type-1 = molecular target: T1, TGF-beta receptor type-1 (Homo sapiens, UniProt P36897); assay: Inhibition of human recombinant GST-fused ALK5 expressed in Sf9 cells
T1 sequence (P36897 whole entry): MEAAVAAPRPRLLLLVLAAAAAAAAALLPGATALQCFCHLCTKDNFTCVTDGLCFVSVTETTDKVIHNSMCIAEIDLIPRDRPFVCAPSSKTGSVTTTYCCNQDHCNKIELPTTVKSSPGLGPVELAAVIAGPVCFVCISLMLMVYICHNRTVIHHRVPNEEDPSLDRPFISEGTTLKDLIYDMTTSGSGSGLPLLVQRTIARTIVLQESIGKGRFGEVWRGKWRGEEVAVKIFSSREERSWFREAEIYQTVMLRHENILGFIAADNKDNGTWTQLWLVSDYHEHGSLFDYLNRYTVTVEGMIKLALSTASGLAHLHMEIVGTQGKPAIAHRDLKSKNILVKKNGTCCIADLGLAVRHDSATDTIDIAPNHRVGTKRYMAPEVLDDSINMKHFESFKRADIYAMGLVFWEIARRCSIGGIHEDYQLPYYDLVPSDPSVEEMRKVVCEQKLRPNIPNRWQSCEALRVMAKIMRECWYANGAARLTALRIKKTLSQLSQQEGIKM

[2] = molecular target: T2, TGF-beta receptor type-1 (Homo sapiens) (UniProt P36897); assay: Inhibition of human recombinant ALK5 activity in human HaCaT cells assessed as inhibition of TGFbeta-induced p3TP-luciferase reporter activity; format: cell-based
T2 sequence (whole entry): T1 sequence (P36897 whole entry)

Chain of Mitogen-activated protein kinase 14 (Q16539 whole entry, the tested form may be a part): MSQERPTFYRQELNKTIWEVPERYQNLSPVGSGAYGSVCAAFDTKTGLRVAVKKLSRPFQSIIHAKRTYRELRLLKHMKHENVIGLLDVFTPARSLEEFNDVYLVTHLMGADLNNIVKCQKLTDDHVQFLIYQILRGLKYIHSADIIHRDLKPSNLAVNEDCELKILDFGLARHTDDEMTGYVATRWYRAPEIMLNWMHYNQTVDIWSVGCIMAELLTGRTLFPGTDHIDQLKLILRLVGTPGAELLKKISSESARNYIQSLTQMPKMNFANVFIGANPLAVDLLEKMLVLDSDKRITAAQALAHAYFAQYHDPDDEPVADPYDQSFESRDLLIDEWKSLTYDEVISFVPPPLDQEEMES

| SMILES | IC50 [1] | IC50 (TGF-beta receptor type-1) | inhibition [2] |
| --- | --- | --- | --- |
| Cc1cccc(-c2[nH]c(Cc3cccc(C(N)=O)c3)nc2-c2ccc3nccnc3c2)n1 | 0.48 µM | 0.017 µM |  |
| Cc1cccc(-c2nn(CCC(=S)Nc3cccc(C#N)c3)cc2-c2ccc3ncccc3c2)n1 | 0.63 µM | 0.232 µM |  |
| COc1ccnc2ccc(-c3cnn(CC(=O)Nc4ccccc4)c3-c3cccc(C)n3)cc12 | > 1 µM | > 1 µM |  |
| Cc1cccc(-c2nn(CCC(=S)Nc3ccccc3)cc2-c2ccc3ncccc3c2)n1 | > 1 µM | 0.088 µM |  |
| Cc1cccc(-c2nn(CC(=O)Nc3cccc(C#N)c3)cc2-c2ccc3ncccc3c2)n1 | > 1 µM | 0.022 µM | Dose-dependent effect |
| Cc1cccc(-c2c(-c3ccc4ncccc4c3)cnn2CC(=O)Nc2cccc(C(N)=O)c2)n1 | > 1 µM | > 1 µM |  |
| Cc1cccc(-c2nn(CC(=O)Nc3cccc(C(N)=O)c3)cc2-c2ccc3ncccc3c2)n1 | > 1 µM | 0.075 µM |  |
| Cc1cccc(-c2nn(CCC(=O)Nc3cccc(C#N)c3)cc2-c2ccc3ncccc3c2)n1 | > 1 µM | 0.101 µM |  |
| Cc1cccc(-c2nn(CC(=O)Nc3ccccc3)cc2-c2ccc3ncccc3c2)n1 | > 1 µM | 0.207 µM |  |
| Cc1cccc(-c2nn(CCC(=O)Nc3ccccc3)cc2-c2ccc3ncccc3c2)n1 | > 1 µM | 0.025 µM |  |
| COc1ccnc2ccc(-c3cn(CCC(=O)Nc4cccc(C#N)c4)nc3-c3cccc(C)n3)cc12 | > 1 µM | > 1 µM |  |
| COc1ccnc2ccc(-c3cn(CC(=O)Nc4ccccc4)nc3-c3cccc(C)n3)cc12 | > 1 µM | > 1 µM |  |
| Cc1cccc(-c2nn(CC(=S)Nc3ccccc3)cc2-c2ccc3ncccc3c2)n1 | > 1 µM | 0.094 µM |  |
| COc1ccnc2ccc(-c3cnn(CC(=O)Nc4cccc(C#N)c4)c3-c3cccc(C)n3)cc12 | > 1 µM | > 1 µM |  |
| Cc1cccc(-c2c(-c3ccc4ncccc4c3)cnn2CC(=O)Nc2ccccc2)n1 | > 1 µM | > 1 µM |  |
| Cc1cccc(-c2c(-c3ccc4ncccc4c3)cnn2CC(=O)Nc2cccc(C#N)c2)n1 | > 1 µM | > 1 µM |  |
| Cc1cccc(-c2nn(CC(=S)Nc3cccc(C#N)c3)cc2-c2ccc3ncccc3c2)n1 | > 1 µM | 0.051 µM |  |
| COc1ccnc2ccc(-c3cn(CC(=O)Nc4cccc(C#N)c4)nc3-c3cccc(C)n3)cc12 | > 1 µM | > 1 µM |  |
